This is an account of results in publication PMC4607724, “Discovery and optimisation studies of antimalarial phenotypic hits” (European Journal of Medicinal Chemistry, 2015).

pEC50: −log10 of the molar value. Like-named read-outs stand apart in the source and are kept apart here.

In one data set the test system is P. falciparum K1. Description: In vitro activity against erythrocytic stages of P. falciparum, 3H-hypoxanthine incorporation assay. Format: cell-based. The conditions noted are these: Plasmodium falciparum. How it is done: (§1) VI. Design and Results of the in vitro & in vivo Studies.
A. Drug inhibition of in vitro cultured P. falciparum parasite:[2] All in vitro assays were carried out twice independently in duplicate.In vitro activity against theerythrocytic stages of P. falciparum was determined by using a 3H-hypoxanthine incorporation assay, using the chloroquine and pyrimethamine resistant K1 strain and the standard drugs chloroquine (Sigma C6628) and artemisinin (Arteannuin, Qinghaosu; Sigma 36,159- 3). Compounds were dissolved in DMSO at 10 mg/mL and added to parasite cultures incubated in RPMI 1640 medium without hypoxanthine, supplemented with HEPES (5.94 g/L), NaHCO3 (2.1 g/L), neomycin (100U/mL), AlbumaxR (5 g/L), and washed human red cells A+ at 2.5% haematocrit (0.3% parasitaemia). Serial doubling dilutions of each drug were prepared in 96-well microtiter plates and incubated in a humidified atmosphere at 37 °C; 4% CO 2, 3% O2, 93% N2. After 48 h, 50 µLof 3H-hypoxanthine (= 0.5 µCi) was added to each well of the plate. The plates were incubated for an additional 24 h under the same conditions. The plates were then harvested with a Betaplate cell harvester (Wallac, Zurich, Switzerland), and the red blood cells were transferred onto a glass fiber filter and then washed with distilled water. The dried filters were inserted into a plastic foil with 10 mL of scintillation fluid and were counted in a Betaplate™ liquid scintillation counter (Wallac, Zurich, Switzerland); IC50values were calculated from sigmoidal inhibition curves using Microsoft Excel. […]

A short description of data set [1]: In vitro cytotoxicity assay in L-6 cells (Alamar Blue). The conditions noted are these: rat. How it is done: as §1
A. Drug inhibition of in vitro cultured P. falciparum parasite:[2] […]
B. In vitro cytotoxicity assay: [2] Assays were performed in 96-well microtiter plates, each well containing 100 µl of RPMI 1640 medium supplemented with 1% L-glutamine (200mM) and 10% fetal bovine serum, and 4 x 10^4 L-6 cells (a primary cell line derived from rat skeletal myoblasts).
Serial drug dilutions of seven 3-fold dilution steps covering a range from 90 to 0.123 µg/mL were prepared. After 72 h of incubation the plates were inspected under an inverted microscope to assure growth of the controls and sterile conditions. 10µL of Alamar Blue was then added to each well and the plates incubated for another 2 h. Then the plates were read with a Spectramax Gemini XS microplatefluorometer (Molecular Devices Cooperation, Sunnyvale, CA, USA) using an excitation wave length of 536 nm and an emission wave length of 588 nm. Data were analysed using the microplate reader software Softmax Pro (Molecular Devices Cooperation, Sunnyvale, CA, USA).
A general note: The colour change of resazurin is a common sign of viable cells or microbes.

A further data set deals with P. falciparum. More on the design: method as in PMID 23918316, PMID 23517371. To be noted: cited from earlier work.
Where [2] appears, read: K1 strain (chloroquine and pyrimethamine resistant), means of two independent assays, read-out: P. falc. EC50.
[3] abbreviates: L-6 cells (rat skeletal myoblasts).

What is called pEC50 is −log10 of the EC50, conventionally taken in molar units. One may read the EC50 as the concentration giving half of the maximal effect. Low readings indicate greater potency, high ones weaker potency. As a reminder, the melting point is the temperature, or range, at which the solid turns liquid. As to `Cc1cc(/C=C2\S/C(=N\c3ccccc3)N(C3CCCCC3)C2=O)c(C)n1-c1ccc(Br)cc1` [Compound 21, (2Z,5Z)-3-Cyclohexyl-5-((1-(4-bromophenyl)-2,5-dimethyl-1H-pyrrol-3-yl)methylene)-2-(phenylimino)thiazolidin-4-one], the melting point lay in the range of 243 to 244 °C. Further, in the data set on P. falciparum K1 (setting [2]), the pEC50 is 6.38. Besides, the EC50 at 72 h in data set [1] (setting [3]) is over 170 µM.
The corresponding values for `Cc1cc(/C=C2\S/C(=N\c3ccccc3)N(C3CCCCC3)C2=O)c(C)n1-c1ccccc1` [Compound 22] are 198 to 199 °C, 6.60 and over 200 µM.
The corresponding values for `Cc1cc(/C=C2\S/C(=N\c3ccccc3)N(C3CCCCC3)C2=O)c(C)n1-c1ccc(C(F)(F)F)cc1` [Compound 23] are 218 to 220 °C, 6.60 and over 170 µM.
Regarding `Cc1cc(/C=C2\S/C(=N\c3ccccc3)N(C3CCCCC3)C2=O)c(C)n1-c1cccc(C(F)(F)F)c1` [Compound 24], in the data set with P. falciparum K1 (setting [2]), the negative logarithm of the EC50 (pEC50) is 5.72. The EC50 at 72 h in data set [1] (setting [3]) is over 170 µM.
In turn, `Cc1cc(/C=C2\S/C(=N\c3ccccc3)N(C3CCCCC3)C2=O)c(C)n1-c1ccccc1C(F)(F)F` [Compound 25] came in with a melting point of 125 to 127 °C. Also, the pEC50 with P. falciparum K1 (setting [2]) was 6.11. Further, the EC50 at 72 h in data set [1] (setting [3]) was over 170 µM.
As for `Cc1cc(/C=C2\S/C(=N\c3ccccc3)N(C3CCCCC3)C2=O)c(C)n1-c1ccc(N2CCOCC2)cc1` [Compound 26], the melting point lay in the range of 155 to 156 °C. The pEC50 with P. falciparum K1 (setting [2]) was 7.05. This compound also showed an EC50 at 72 h in data set [1] (setting [3]) of over 170 µM.
For the compound `Cc1cc(/C=C2\S/C(=N\c3ccccc3)N(C3CCCCC3)C2=O)c(C)n1CCN1CCOCC1` [Compound 27], in the data set with P. falciparum K1 (setting [2]), the pEC50 was 6.21. Moreover, the half-maximal effective concentration (EC50) at 72 h in data set [1] (setting [3]) was determined as 71 µM.
Regarding `O=C1/C(=C/c2ccn(-c3ccccc3C(F)(F)F)c2)S/C(=N\c2ccccc2)N1C1CCCCC1` [Compound 28], the melting point is 145 to 147 °C. For the same compound, the pEC50 in the data set on P. falciparum K1 (setting [2]) is 5.64. The compound also came in with an EC50 at 72 h in data set [1] (setting [3]) of over 180 µM.
Compound `O=C1/C(=C/c2ccn(Cc3ccccc3)c2)S/C(=N\c2ccccc2)N1C1CCCCC1` [Compound 29] came in with a melting point of 68 to 70 °C. For the same compound, in the data set with P. falciparum K1 (setting [2]), the pEC50 is 5.80. The EC50 at 72 h in data set [1] (setting [3]) is over 200 µM.
In the case of `Cc1cc(/C=C2\S/C(=N\c3ccccc3)N(C3CCCCC3)C2=O)c(C)[nH]1` [Compound 30], the pEC50 in the data set on P. falciparum K1 (setting [2]) was 5.47. The same compound had an EC50 at 72 h in data set [1] (setting [3]) of 23 µM.
On to `Cc1cc(/C=C2\S/C(=N\c3ccccc3)N(C3CCCCC3)C2=O)c(C)n1C` [Compound 31], for which the melting point was in the range of 184 to 185 °C. In the data set with P. falciparum K1 (setting [2]), the negative logarithm of the EC50 (pEC50) was 5.72. Further, the EC50 at 72 h in data set [1] (setting [3]) was over 230 µM.
For `O=C1/C(=C/c2cnn(-c3ccccc3C(F)(F)F)c2)S/C(=N\c2ccccc2)N1C1CCCCC1` [Compound 32], the pEC50 in the data set with P. falciparum K1 (setting [2]) was 5.72. The compound further returned an EC50 at 72 h in data set [1] (setting [3]) of over 180 µM.
On to `Cc1cc(/C=C2\S/C(=N\c3ccccc3)N(C)C2=O)c(C)n1-c1ccccc1` [Compound 33], for which the melting point is 203 to 205 °C. Also, in the data set on P. falciparum K1 (setting [2]), the pEC50 was 5.59. This compound displayed a concentration for a half-maximal effect (EC50) at 72 h in data set [1] (setting [3]) of over 230 µM.
With `CC1=CC(/C=C2\S/C(=N\c3ccccc3)N(C)C2=O)=C(C)C1c1ccccc1C(F)(F)F` (stereo not shown) [Compound 34], the pEC50 with P. falciparum K1 (setting [2]) was 5.66. In data set [1] (setting [3]), this compound yielded an EC50 at 72 h of over 200 µM.
Compound `Cc1cc(/C=C2\S/C(=N\c3ccccc3)N(C)C2=O)c(C)n1-c1ccc(N2CCOCC2)cc1` [Compound 35] came in with a melting point of 288 °C. The pEC50 with P. falciparum K1 (setting [2]) was 5.82. In addition, the half-maximal effective concentration (EC50) at 72 h in data set [1] (setting [3]) came to 120 µM.
Consider `Cc1cc(/C=C2\S/C(=N\c3ccccc3)N(C)C2=O)c(C)n1CCN1CCOCC1` [Compound 36], for which the pEC50 with P. falciparum K1 (setting [2]) was 6.00. In data set [1] (setting [3]), this compound yielded an EC50 at 72 h of over 210 µM.
Consider `CN1C(=O)/C(=C/c2ccn(Cc3ccccc3)c2)S/C1=N\c1ccccc1` [Compound 37], for which the melting point lay in the range of 155 to 156 °C. Also, in the data set with P. falciparum K1 (setting [2]), the pEC50 is 5.41. For the same compound, in data set [1] (setting [3]), the EC50 at 72 h was over 240 µM.
Turning to `CN1C(=O)/C(=C/c2cnn(-c3ccccc3C(F)(F)F)c2)S/C1=N\c1ccccc1` [Compound 38], the negative logarithm of the EC50 (pEC50) with P. falciparum K1 (setting [2]) was 5.34. In data set [1] (setting [3]), this compound registered an EC50 at 72 h of 180 µM.
In the case of `C/N=C1\S/C(=C\c2cc(C)n(-c3ccc(N4CCOCC4)cc3)c2C)C(=O)N1C` [Compound 39], the melting point lay in the range of 333 to 334 °C. Also, the pEC50 in the data set with P. falciparum K1 (setting [2]) is under 4.89. In data set [1] (setting [3]), the EC50 at 72 h was over 220 µM.
As to `C/N=C1\S/C(=C\c2cc(C)n(CCN3CCOCC3)c2C)C(=O)N1C` [Compound 40], the pEC50 with P. falciparum K1 (setting [2]) is 5.25. Further, the EC50 at 72 h in data set [1] (setting [3]) came to 78 µM.
`C/N=C1\S/C(=C\c2ccn(-c3ccccc3C(F)(F)F)c2)C(=O)N1C` [Compound 41] came in with a melting point of 54 to 55 °C. In the data set on P. falciparum K1 (setting [2]), the pEC50 is 5.33. The compound further returned an EC50 at 72 h in data set [1] (setting [3]) of 4 µM.
The corresponding values for `C/N=C1\S/C(=C\c2ccn(Cc3ccccc3)c2)C(=O)N1C` [Compound 42] are 128 to 130 °C, 5.02 and over 290 µM.
Regarding `C/N=C1\S/C(=C\c2cnn(-c3ccccc3C(F)(F)F)c2)C(=O)N1C` [Compound 43], the melting point fell in the range of 170 to 172 °C. Further, the pEC50 in the data set with P. falciparum K1 (setting [2]) was 5.44. For the same compound, the EC50 at 72 h in data set [1] (setting [3]) was 34 µM.
Regarding `Cc1cc(/C=C2\SC(=O)NC2=O)c(C)n1-c1ccccc1C(F)(F)F` [Compound 44], the melting point lay in the range of 234 to 235 °C. For the same compound, the pEC50 in the data set on P. falciparum K1 (setting [2]) is 5.72. For the same compound, in data set [1] (setting [3]), the midpoint of the response, the EC50 at 72 h, lay at 64 µM.
`Cc1cc(/C=C2\SC(=O)N(C)C2=O)c(C)n1-c1ccccc1` [Compound 45] yielded a melting point of 195 to 196 °C. Also, in the data set with P. falciparum K1 (setting [2]), the negative logarithm of the EC50 (pEC50) was 5.66. In data set [1] (setting [3]), the EC50 at 72 h is over 290 µM.
`Cc1cc(/C=C2/SC(=O)NC2=O)c(C)n1-c1ccccc1C(F)(F)F` [Compound 46] registered a melting point of 205 to 210 °C. For the same compound, the pEC50 in the data set on P. falciparum K1 (setting [2]) was 5.08. In data set [1] (setting [3]), this compound had an EC50 at 72 h of 43 µM.
The matching figures for `Cc1cc(/C=C2/SC(=N)NC2=O)c(C)n1-c1ccccc1C(F)(F)F` [Compound 47]: 285 to 290 °C, 5.24 and 56 µM.
The matching figures for `Cc1cc(/C=C2/SC(=S)NC2=O)c(C)n1-c1ccccc1C(F)(F)F` [Compound 48]: 255 to 258 °C, 4.68 and 9 µM.
For the compound `Cc1cc(/C=C2\NC(=O)NC2=O)c(C)n1-c1ccccc1C(F)(F)F` [Compound 49], the melting point was 265 to 267 °C. In addition, the pEC50 in the data set with P. falciparum K1 (setting [2]) is 4.89. The same compound came in with an EC50 at 72 h in data set [1] (setting [3]) of 84 µM.
The corresponding values for `Cc1cc(/C=C2\NC(=O)NC2=O)c(C)n1-c1ccccc1` [Compound 50] are 267 to 270 °C (dec.), 4.96 and over 320 µM.
In turn, `Cc1cc(C=C2C(=O)NC(=O)NC2=O)c(C)n1-c1ccccc1C(F)(F)F` [Compound 51] returned a melting point of over 300 °C. The pEC50 in the data set on P. falciparum K1 (K1, read-out: P. falc. EC50) is 4.80. Also, the EC50 at 72 h in data set [1] stood at 120 µM.
The matching figures for `Cc1cc(C=C2C(=O)NC(=S)NC2=O)c(C)n1-c1ccccc1C(F)(F)F` [Compound 52]: over 300 °C, 4.54 and 16 µM.
Consider `CCOC(=O)C1=C(C)N/C(=C/c2cc(C)n(-c3ccccc3C(F)(F)F)c2C)C1=O` [TDR32750], for which the “selectivity compared to L6 mammalian cells” value with P. falciparum (L6 vs P. falciparum) is over 2000 fold. Also, the negative-log EC50 (pEC50) in the data set on P. falciparum (read-out: EC50 against P. falciparum) was 8.05.
`COc1cc([C@@H]2c3cc4c(cc3[C@H](O)[C@H]3COC(=O)[C@H]23)OCO4)cc(OC)c1OC` [podophyllotoxin, reference compound] displayed a concentration giving a half-maximal response (EC50) at 72 h in data set [1] of 5 ng/mL.
